Measurements: patent publication US9464064B2, “HCV helicase inhibitors and methods of use thereof” (University of Kansas, priority 2011, dated 2016)
Read-outs that look alike come from different tables or passages of the source.

How the values were obtained:
NS3h_2a(JFH1) = molecular target: T1, NS3h_2a(JFH1) (Hepatitis C virus genotype 2a, UniProt Q99IB8); assay: MBHA, DNA substrate, genotype 2a helicase; assay type: biochemical, hepatitis C virus genotype 2a(JFH1)
T1 construct: truncated C-terminally His-tagged NS3 proteins lacking the N-terminal protease, called NS3h; His-tag (C); made in house
Description: All oligonucleotides were purchased from Integrated DNA Technologies (IDT, Coralville, Iowa). Primuline derivatives were synthesized and purified as described herein. Three different NS3 proteins were used in this study. Two were truncated C-terminally His-tagged NS3 proteins lacking the N-terminal protease, called NS3h, the third was a full-length NS3 with the portion of NS4A needed for protease activation fused to its N-terminus, called scNS4A-NS3 (Howe, et al. (1999) Protein Sci. 8:1332-41), and the fourth was a 23 kDa scNS4A-NS3 protease fragment lacking the helicase domains, called scNS4A-NS3p (Protein One, Rockville, Md.). NS3h was expressed from two different HCV strains. NS3h_1b(con1) was from the con1 strain of genotype 1b (GENBANK accession AB114136), and NS3h_2a(JFH1) was from the JFH1 strain of HCV genotype 2a (GENBANK accession AJ238799). […] His-tagged recombinant NS3h_1b(con1), NS3h_2a(JFH1), and scNS4A-NS3 (also from genotype 1b(con1)) were expressed, and purified as previously described (Frick, et al. (2010) supra; Lam, et al. (2003) J. Virol. 77:3950-3961). The scNS4A-NS3p (genotype 1b) was from Protein One. A plasmid expressing NS3h from dengue virus strain 2 (NS3h_DV2)(GENBANK accession 2BMF) is known in the art (Xu, et al. (2005) J. Virol. 79:10278-10288), and used to express and purify NS3h_DV2 (Belon, et al. (2010) supra)
Compounds that specifically target less conserved regions of a HCV protein are often not potent inhibitors of the same protein derived from other genotypes, and they might be susceptible to rapid evolution of related viruses. As described herein, primuline derivatives can inhibit HCV helicase isolated from the genotype 1b(con1) strain. Therefore to further analyze specificity, the subset of primuline analogs was tested on the helicase isolated from the genotype 2a(JFH1) strain. The two recombinant proteins differ at 83 of their 480 amino acids. The JHF1 strain is also of interest because it serves as the backbone for HCV strains capable of replicating in cell culture (Wakita, et al. (2005) Nat. Med. 11:791-796). The molecular beacon-based helicase assay (MBHA) (Belon & Frick (2008) supra) was used to measure the ability of each compound to inhibit DNA unwinding catalyzed by NS3h isolated from genotype 2a(JFH1) (NS3h_2a(JFH1)). […] Selected compounds were also tested for the ability to inhibit helicase reactions catalyzed by full-length NS3 and a single chain NS4A-NS3 protein (scNS4A-NS3) described below and used for protease assays.

[1] = molecular target: T2, HCV NS3 helicase NS3h_1b(con1) (Hepatitis C virus genotype 1b, UniProt Q9WMX2); assay: biochemical; assay type: biochemical, hepatitis C virus genotype 1b(con1)
T2 construct: truncated C-terminally His-tagged NS3 proteins lacking the N-terminal protease, called NS3h; His-tag (C); made in house
Method in brief: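 Molecular beacon helicase assay with His-tagged recombinant NS3 and a Cy5/IBRQ-labelled partially duplex DNA substrate (25 bp) or Tye665-labelled RNA substrate (19 bp). Reactions started with 1 mM ATP. Screening read fluorescence before and 30 min after ATP (ex 643/em 670 nm). For IC50, 5% v/v DMSO was present, initial velocities came from first-order decay fits, and a Hill equation was applied.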

Huh-7.5 cells = assay: Cell viability assay ([…]-GLO); assay type: cell-based, human; conditions: for Cell viability (% viable): 10 μM compound, triplicate, average ± SD
Method in brief: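 Huh-7.5 cells exposed to compound for 72 hours, washed, then lysed in a 1:1 mix of growth medium and […]-GLO reagent. After 30 minutes at 23° C., luminescence was read for 1 second as a measure of viability.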

[2] = genotype 2a (JFH1), read-out: Target Potency MBHA (IC50 avg., μM) 2a (JFH1) (converted)
[3] = MBHA, DNA unwinding, mean ± SD of three titrations, read-out: Helicase IC50
[4] = genotype 1b (con1), read-out: Target Potency MBHA (IC50 avg., μM) 1b (con1)
[5] = standard HCV helicase MBHA (Table 9), read-out: DNA Unwinding IC50
[6] = DNA-based MBHA, genotype 2a(JFH1), read-out: DNA Helicase NS3h_2a IC50 (μM) ± SD
[7] = DNA-based MBHA, genotype 1b, read-out: DNA Helicase NS3h_1b IC50 (μM) ± SD

T2 sequence (Q9WMX2 1192-1657): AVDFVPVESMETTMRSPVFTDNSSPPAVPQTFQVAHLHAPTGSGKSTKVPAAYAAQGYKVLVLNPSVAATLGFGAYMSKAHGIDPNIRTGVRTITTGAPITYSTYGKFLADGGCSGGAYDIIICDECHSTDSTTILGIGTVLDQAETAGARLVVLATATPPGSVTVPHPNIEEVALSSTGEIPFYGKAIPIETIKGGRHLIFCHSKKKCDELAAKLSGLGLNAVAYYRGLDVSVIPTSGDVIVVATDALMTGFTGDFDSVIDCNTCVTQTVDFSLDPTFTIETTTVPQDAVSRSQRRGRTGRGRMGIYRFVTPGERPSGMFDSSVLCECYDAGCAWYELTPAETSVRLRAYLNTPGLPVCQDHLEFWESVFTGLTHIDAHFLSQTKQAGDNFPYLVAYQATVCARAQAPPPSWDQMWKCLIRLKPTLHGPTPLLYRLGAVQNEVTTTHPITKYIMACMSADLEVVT
T1 sequence (Q99IB8 1196-1661): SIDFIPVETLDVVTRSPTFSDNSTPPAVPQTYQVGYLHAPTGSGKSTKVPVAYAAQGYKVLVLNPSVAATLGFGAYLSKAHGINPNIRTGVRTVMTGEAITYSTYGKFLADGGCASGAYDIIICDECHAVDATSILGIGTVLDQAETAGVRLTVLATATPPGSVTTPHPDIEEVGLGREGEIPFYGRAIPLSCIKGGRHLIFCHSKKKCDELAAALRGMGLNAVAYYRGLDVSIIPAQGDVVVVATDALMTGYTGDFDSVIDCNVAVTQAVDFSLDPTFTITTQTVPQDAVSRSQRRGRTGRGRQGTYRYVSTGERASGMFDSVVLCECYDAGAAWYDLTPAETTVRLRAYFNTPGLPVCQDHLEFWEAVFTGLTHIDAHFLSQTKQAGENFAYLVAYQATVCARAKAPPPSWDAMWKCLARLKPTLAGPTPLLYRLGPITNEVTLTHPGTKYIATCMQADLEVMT

Compound | IC50 (NS3h_2a(JFH1); [2]) | IC50 [1, 3] | IC50 [1, 4] | IC50 [1, 5] | Cell Viability (% @ 10 μM) (Huh-7.5 cells) | Cell viability (% viable) (Huh-7.5 cells) | IC50 (NS3h_2a(JFH1); [6]) | IC50 [1, 7] | IC50 (NS3h_2a(JFH1); Target Potency MBHA (IC50 avg., μM) 2a (JFH1), genotype 2a (JFH1)) | IC50 ([1]; DNA Unwinding IC50, standard HCV helicase MBHA (Table 9)) | IC50 ([1]; Helicase IC50, MBHA, DNA unwinding, mean ± SD of three titrations) | IC50 ([1]; Target Potency MBHA (IC50 avg., μM) 1b (con1), genotype 1b (con1))
CC(=O)Nc1ccc(-c2nc3ccc(-c4nc5ccc(C)c(S(=O)(=O)O)c5s4)cc3s2)cc1 [Compound 30, 2′-(4-acetamidophenyl)-6-methyl-[2,6′-bibenzo[d]thiazole]-7-sulfonic acid] | > 100 µM | > 100 µM | > 100 µM | 227 ± 107 µM | 102 ± 9% | 100 ± 6% |  |  |  |  |  | 
Cc1ccc2nc(-c3ccc(NC(=O)c4ccc(NC(=O)c5ccccc5)cc4)cc3)sc2c1S(=O)(=O)O.N [Compound 40] | 79.2 µM |  | 81.4 ± 22 µM | 81 ± 22 µM | 115 ± 3% |  |  |  |  |  |  | 
Cc1ccc2nc(-c3ccc4nc(-c5ccc(NC(=O)c6ccc(NC(=O)OCC7c8ccccc8-c8ccccc87)cc6)cc5)sc4c3)sc2c1S(=O)(=O)O [Compound 16, 2′-(4-(4-((((9H-fluoren-9-yl)methoxy)carbonyl)amino)benzamido)phenyl)-6-methyl-[2,6′-bibenzo[d]thiazole]-7-sulfonic acid] | 5.8 ± 3.1 µM | 5.4 ± 1 µM | 5.4 ± 1 µM | 5 ± 1 µM | 92 ± 4% | 92 ± 4% |  |  |  |  |  | 
Cc1ccc2nc(-c3ccc4nc(-c5ccc(NC(=O)c6cccc(Cl)c6)cc5)sc4c3)sc2c1S(=O)(=O)O [Compound 17, 2′-(4-(3-chlorobenzamido)phenyl)-6-methyl-[2,6′-bibenzo[d]thiazole]-7-sulfonic acid] | 3.9 ± 1 µM | 2.6 ± 1 µM | 2.6 ± 1 µM | 3 ± 1 µM | 112 ± 4% | 112 ± 4% | 4 ± 0.5 µM | 3 ± 0.8 µM |  |  |  | 
COc1ccc(NC(=O)Nc2ccc(-c3nc4ccc(-c5nc6ccc(C)c(S(=O)(=O)O)c6s5)cc4s3)cc2)cc1 [Compound 55] | 6.4 µM |  | 4.8 ± 2 µM | 5 ± 2 µM | 99 ± 9% |  |  |  |  |  |  | 
Cc1ccc2nc(-c3ccc4nc(-c5ccc(NC(=O)c6ccccc6)cc5)sc4c3)sc2c1S(=O)(=O)O [Compound 5, 2′-(4-benzamidophenyl)-6-methyl-[2,6′-bibenzo[d]thiazole]-7-sulfonic acid] | 4.6 ± 1.4 µM | 11 ± 1.5 µM | 10.7 ± 1.5 µM | 11 ± 2 µM | 88 ± 2% | 88 ± 2% |  |  |  |  |  | 
Cc1ccc2nc(-c3ccc4nc(-c5ccc(NC(=O)c6ccc(Cl)c(Cl)c6)cc5)sc4c3)sc2c1S(=O)(=O)O [Compound 18, 2′-(4-(3,4-dichlorobenzamido)phenyl)-6-methyl-[2,6′-bibenzo[d]thiazole]-7-sulfonic acid] | 4.5 ± 1 µM | 3.7 ± 1 µM | 3.7 ± 1 µM | 4 ± 1 µM | 114 ± 7% | 114 ± 7% |  | 4 ± 1 µM |  |  |  | 
Cc1ccc2nc(-c3ccc4nc(-c5ccc(NC(=O)c6ccc(N)cc6)cc5)sc4c3)sc2c1S(=O)(=O)O [Compound 6, 2′-(4-(4-aminobenzamido)phenyl)-6-methyl-[2,6′-bibenzo[d]thiazole]-7-sulfonic acid] | 5.3 ± 2.5 µM | 10 ± 2.4 µM | 10.3 ± 2.4 µM | 10 ± 2 µM | 93 ± 4% | 93 ± 4% | 5 ± 2.5 µM | 10 ± 2.4 µM |  |  |  | 
COc1ccc(C(=O)Nc2ccc(-c3nc4ccc(-c5nc6ccc(C)c(S(=O)(=O)O)c6s5)cc4s3)cc2)cc1 [Compound 8, 2′-(4-(4-methoxybenzamido)phenyl)-6-methyl-[2,6′-bibenzo[d]thiazole]-7-sulfonic acid] |  |  |  |  | 85 ± 5% | 85 ± 5% |  |  | 5.4 ± 1.4 µM | 10 ± 3 µM | 10 ± 2.6 µM | 10 ± 2.6 µM
